Data: patent publication EP4722195A1, “PH-SENSITIVE CATIONIC LIPID AND LIPID NANOPARTICLES” (National University Corporation Hokkaido University, priority 2023, dated 2024)
Like-named read-outs stand apart in the source and are kept apart here.

Experiments:
[1] = Zeta potential of lipid nanoparticles; assay type: physicochemical
Protocol: (§1) The average particle size (number average value), ζ-average particle size, and polydispersity index (PdI) of the lipid nanoparticles in PBS(-) (pH 7.4), and the zeta potential in 10 mM HEPES buffer (pH 7.4) were measured using an analyzer "Zetasizer Nano ZS ZEN3600" (manufactured by Malvern) utilizing dynamic light scattering.

[2] = Encapsulation rate of lipid nanoparticles (Ribogreen); assay type: physicochemical
Protocol: The encapsulation rate of the lipid nanoparticles was determined by measuring the amount of encapsulated nucleic acid (mRNA) using Ribogreen (manufactured by Life Technologies), which is an RNA intercalator. The mRNA amount was quantified based on a calibration curve prepared from a series of diluted mRNA solutions at known concentrations.
Specifically, 10 mM HEPES buffer (pH 7.4), 10 w/v% Triton X-100, and Ribogreen were mixed at 978.8 µL, 20 µL, and 1.25 µL per 10 wells, respectively, to obtain a Triton(+) buffer. A Triton(-) buffer was obtained in replacing Triton X-100 with 10 mM HEPES buffer (pH 7.4). 100 µL/well of the sample was added to a black 96-well plate for fluorescence measurement, and 100 µL/well of Triton(+) buffer or Triton(-) buffer was added. After the plate was gently shaken on a shaking incubator (SI-300, manufactured by AS ONE) (700 rpm, 30 seconds), the fluorescence intensity of each well was measured using a microplate reader (VARIOSKAN LUX, manufactured by Thermo Fisher Scientific) (wavelength Ex/Em=500 nm/525 nm), and the nucleic acid encapsulation rate (%) was calculated.

[3] = lipid nanoparticles, tns
Protocol: (§2) The apparent pKa of the lipid nanoparticles was measured using p-toluenesulfonic acid (TNS). First, TNS (final concentration: 0.75 µM) and lipid nanoparticles (final concentration: 30 µM) were mixed in a buffer (200 mL) adjusted to each pH (pH 3.5 to 9.5). As the buffer, 20 mM citrate buffer, 20 mM sodium phosphate buffer, or 20 mM Tris-HCl buffer containing 130 mM NaCl was used. The fluorescence intensity of the prepared mixture was measured using a fluorescence spectrophotometer (Varioskan Lux, manufactured by Thermo Fisher Scientific) with the settings of λex=321 nm and λem=447 nm. Among the measured values, the highest value and the lowest value were set as 100% and 0% ionization degrees, respectively, and the pH showing a 50% ionization degree was calculated as the apparent pKa. The content ratio (%) of cationically charged pH-sensitive cationic lipid was calculated using the Henderson-Hasselbalch equation.

liver = test: EGFP expression in liver tissue sections of mice administered EGFP mRNA-loaded lipid nanoparticles (confocal microscopy); assay type: in vivo, Balb/c mice; details: Example 27, Fig. 6; EGFP mRNA-loaded lipid nanoparticles TxT/DSPC/chol/PEG-DMG=50/3/47/1.5 (mol%); 24 hours post-administration
Protocol: Subsequently, each EGFP mRNA-loaded lipid nanoparticle was administered to Balb/c mice at a dose of 0.2 mg mRNA/kg. At 23 hours and 50 minutes post-administration, fluorescently labeled lectin (DyLight-649 Lycopersicon (Tomato) Lectin) was intravenously injected via the tail vein at 40 µg/mouse to fluorescently label vascular endothelial cells. At 24 hours after administration of the lipid nanoparticles, the mice were euthanized, and their livers were collected to prepare tissue sections. For nuclear staining, the tissue sections were immersed in a nuclear staining solution (1 µg/mL Hoechst 33342 dissolved in PBS(-)), cooled on ice, and incubated for at least 30 minutes in the dark. The stained tissue sections were then observed using a confocal laser scanning microscope. Subsequently, in the same manner as Example 26, each EGFP mRNA-loaded lipid nanoparticle was administered to Balb/c mice. At 23 hours and 50 minutes post-administration, fluorescently labeled lectin was administered. At 24 hours after administration of the lipid nanoparticles, the mice were euthanized, and their livers were collected to prepare tissue sections. Each tissue section was observed using a confocal laser scanning microscope. In the figure, the upper panels show fluorescence images of EGFP, and the lower panels show fluorescence images of vascular endothelial cells (fluorescently labeled lectin).

[4] = Average particle size and polydispersity index of lipid nanoparticles (dynamic light scattering); assay type: physicochemical
Protocol: as §1

[5] = Apparent pKa of lipid nanoparticles (TNS)
Protocol: as §2

[6] = Table 3, Fluc mRNA-loaded lipid nanoparticles, TxT/DSPC/chol/PEG-DMG=50/3/47/1.5 (mol%)
[7] = Table 5, EGFP mRNA-loaded lipid nanoparticles, TxT/DSPC/chol/PEG-DMG=50/3/47/1.5 (mol%), total flow rate 3.0 mL/min
[8] = Table 4, Fluc mRNA-loaded lipid nanoparticles, TxT-5-5A14/DSPC/chol/PEG-DMG=50/3/47/1.5, SM-102, ALC-0315 or MC3/DSPC/chol/PEG-DMG=50/10/40/1.5 (mol%)
[9] = Table 7, hEPO mRNA-loaded lipid nanoparticles, TxT/DSPC/chol/PEG-DMG=50/3/47/1.5, SM-102/DSPC/chol/PEG-DMG=50/10/40/1.5 (mol%)
[10] = Table 1, Fluc mRNA-loaded lipid nanoparticles, TxT/DSPC/chol/PEG-DMG=50/15/35/1.5 (mol%)

ζ-potential [1, 6]	ζ-potential [1, 7]	mRNA concentration [2, 6]	mRNA encapsulation rate [2, 6]	mRNA concentration [2, 7]	mRNA encapsulation rate [2, 7]	Pdl [4, 6]	number average particle size [4, 6]	ζ-average particle size [4, 6]	Pdl [4, 7]	number average particle size [4, 7]	ζ-average particle size [4, 7]	pKa [5, 6]	ζ-potential [1, 10]	mRNA concentration [2, 10]	mRNA encapsulation rate [2, 10]	Pdl [4, 10]	number average particle size [4, 10]	ζ-average particle size [4, 10]	Molecule	fluorescence of EGFP in the liver tissues (liver)	also measured
-4.4 mV	-8.7 mV	0.018 µg/µL	98.2%	0.022 µg/µL	97.8%	0.11	95.1 nm	136.2 nm	0.08	108.4 nm	136.2 nm	–	–	–	–	–	–	–	2-(6-(didecylamino)-2,6-dioxohexyl)-2-(3-(piperidin-1-yl)propanamido)propane-1,3-diyl bis(5-(didecylamino)-5-oxopentanoate) [TxT-5-5A20]	fluorescence of EGFP was observed	pKa [3]: 6.53
-7.4 mV	-8.9 mV	0.018 µg/µL	99.2%	0.016 µg/µL	99.1%	0.07	69.3 nm	89.4 nm	0.06	80.1 nm	101.1 nm	4.90	–	–	–	–	–	–	CCCCCCCCC(CCCCCC)CNC(=O)CCCC(=O)OCC(COC(=O)CCCC(=O)NCC(CCCCCC)CCCCCCCC)(COC(=O)CCCC(=O)NCC(CCCCCC)CCCCCCCC)NC(=O)CCN1CCCCC1 (stereo not drawn) [TxT-5-5A16β, 2-(((5-((2-hexyldecyl)amino)-5-oxopentanoyl)oxy)methyl)-2-(3-(piperidin-1-yl)propanamido)propane-1,3-diyl bis(5-((2-hexyldecyl)amino)-5-oxopentanoate)]	fluorescence of EGFP was observed	–
-9.7 mV	-11.6 mV	0.022 µg/µL	98.8%	0.024 µg/µL	98.3%	0.17	60.2 nm	95.7 nm	0.14	71.1 nm	103.3 nm	5.38	–	–	–	–	–	–	CCCCCCC(CCCCCC)COC(=O)CCCC(=O)OCC(COC(=O)CCCC(=O)OCC(CCCCCC)CCCCCC)(COC(=O)CCCC(=O)OCC(CCCCCC)CCCCCC)NC(=O)CCN1CCCCC1 [TxT-5-5E14, bis(2-hexyloctyl) O,O'-(2-(((5-((2-hexyloctyl)oxy)-5-oxopentanoyl)oxy)methyl)-2-(3-(piperidin-1-yl)propanamido)propane-1,3-diyl) diglutarate]	fluorescence of EGFP was observed	–

The remaining lines, values behind:

Molecule	ζ-potential [1, 6]	ζ-potential [1, 7]	mRNA concentration [2, 6]	mRNA encapsulation rate [2, 6]	mRNA concentration [2, 7]	mRNA encapsulation rate [2, 7]	Pdl [4, 6]	number average particle size [4, 6]	ζ-average particle size [4, 6]	Pdl [4, 7]	number average particle size [4, 7]	ζ-average particle size [4, 7]	pKa [5, 6]	ζ-potential [1, 10]	mRNA concentration [2, 10]	mRNA encapsulation rate [2, 10]	Pdl [4, 10]	number average particle size [4, 10]	ζ-average particle size [4, 10]	fluorescence of EGFP in the liver tissues (liver)	also measured
CCCCCCCCC(CCCCCC)C(=O)OCCCCCCN(CCCCO)CCCCCCOC(=O)C(CCCCCC)CCCCCCCC (stereo not shown) [ALC-0315, reference compound]	–	–	–	–	–	–	–	–	–	–	–	–	–	–	–	–	–	–	–	–	ζ-potential [1, 8]: -2.1 mV; mRNA concentration [2, 8]: 0.025 µg/µL; mRNA encapsulation rate [2, 8]: 98.4%; pKa [5, 8]: 6.27; Pdl [4, 8]: 0.13; number average particle size [4, 8]: 57.0 nm; ζ-average particle size [4, 8]: 86.0 nm
CCCCCCCCCCCOC(=O)CCCCCN(CCO)CCCCCCCC(=O)OC(CCCCCCCC)CCCCCCCC [SM-102, reference compound]	–	–	–	–	–	–	–	–	–	–	–	–	–	–	–	–	–	–	–	–	ζ-potential [1, 8]: -11.0 mV; ζ-potential [1, 9]: 0.0 mV; mRNA concentration [2, 8]: 0.018 µg/µL; mRNA encapsulation rate [2, 8]: 99.6%; mRNA concentration [2, 9]: 0.015 µg/µL; mRNA encapsulation rate [2, 9]: 97.5%; Pdl [4, 8]: 0.21; number average particle size [4, 8]: 42.0 nm; ζ-average particle size [4, 8]: 70.4 nm; Pdl [4, 9]: 0.19; number average particle size [4, 9]: 38.6 nm; ζ-average particle size [4, 9]: 78.8 nm
CCCCCCCCCCN(CCCCCCCCCC)C(=O)CCC(=O)OCC(COC(=O)CCC(=O)N(CCCCCCCCCC)CCCCCCCCCC)(COC(=O)CCC(=O)N(CCCCCCCCCC)CCCCCCCCCC)NC(=O)CCN1CCCCC1 [TxT-5-4A20, 2-(((4-(didecylamino)-4-oxobutanoyl)oxy)methyl)-2-(3-(piperidin-1-yl)propanamido)propane-1,3-diyl bis(4-(didecylamino)-4-oxobutanoate)]	-3.7 mV	-7.4 mV	0.019 µg/µL	98.4%	0.021 µg/µL	96.2%	0.08	98.6 nm	136.8 nm	0.08	110.1 nm	140.9 nm	6.49	–	–	–	–	–	–	not detectable	–
CCCCN(CCCC)C(=O)CCCC(=O)OCC(COC(=O)CCCC(=O)N(CCCC)CCCC)(COC(=O)CCCC(=O)N(CCCC)CCCC)NC(=O)CCN1CCCCC1 [TxT-5-5A8, 2-(((5-(dibutylamino)-5-oxopentanoyl)oxy)methyl)-2-(3-(piperidin-1-yl)propanamido)propane-1,3-diyl bis(5-(dibutylamino)-5-oxopentanoate)]	–	–	–	–	–	–	–	–	–	–	–	–	–	-5.3 mV	0.005 µg/µL	23.7%	0.19	61.6 nm	92.9 nm	–	–
CCCCC(CC)CNC(=O)CCCC(=O)OCC(COC(=O)CCCC(=O)NCC(CC)CCCC)(COC(=O)CCCC(=O)NCC(CC)CCCC)NC(=O)CCN1CCCCC1 (stereo not drawn) [TxT-5-5A8β, 2-(((5-((2-ethylhexyl)amino)-5-oxopentanoyl)oxy)methyl)-2-(3-(piperidin-1-yl)propanamido)propane-1,3-diyl bis(5-((2-ethylhexyl)amino)-5-oxopentanoate)]	–	–	–	–	–	–	–	–	–	–	–	–	–	-18.0 mV	0.009 µg/µL	73.4%	0.30	110.3 nm	255.9 nm	–	–
CCCCCN(CCCCC)C(=O)CCCC(=O)OCC(COC(=O)CCCC(=O)N(CCCCC)CCCCC)(COC(=O)CCCC(=O)N(CCCCC)CCCCC)NC(=O)CCN1CCCCC1 [TxT-5-5A10, 2-(((5-(dipentylamino)-5-oxopentanoyl)oxy)methyl)-2-(3-(piperidin-1-yl)propanamido)propane-1,3-diyl bis(5-(dipentylamino)-5-oxopentanoate)]	–	–	–	–	–	–	–	–	–	–	–	–	–	-36.4 mV	0.012 µg/µL	56.5%	0.42	213.0 nm	426.0 nm	–	pKa ([5]; Table 1, apparent pKa of Fluc mRNA-loaded lipid nanoparticles, TxT/DSPC/chol/PEG-DMG=50/15/35/1.5 (mol%)): 7.94
